# Laboratory results: ChEMBL document CHEMBL5131486, “Design, synthesis, biological evaluation and molecular modeling of N-isobutyl-N-((2-(p-tolyloxymethyl)thiazol-4yl)methyl)benzo[d][1,3] dioxole-5-carboxamides as selective butyrylcholinesterase inhibitors” (Bioorg Med Chem Lett, 2022)
# Calls of active or inactive are those of the source. The calls are words filed in the database; no cut-off is given here.
# Tests used:
# Cholinesterase [1] = molecular target: T1, Cholinesterase (Homo sapiens, UniProt P06276); assay: Inhibition of BuchE (unknown origin) at 10 uM relative to control
# Acetylcholinesterase [2] = molecular target: T2, Acetylcholinesterase (Homo sapiens, UniProt P22303); assay: Inhibition of AChE (unknown origin) at 10 uM relative to control
# Cholinesterase [3] = molecular target: T1, Cholinesterase; assay: Inhibition of BuchE (unknown origin)
# SH-SY5Y [4] = assay: Cytotoxicity against human SH-SY5Y cells assessed as reduction in cell viability at 50 uM incubated for 24 hrs by MTT assay relative to control; type: toxicity, cell-based
# SH-SY5Y [5] = assay: Cytotoxicity against human SH-SY5Y cells assessed as reduction in cell viability at <20 uM incubated for 24 hrs by MTT assay; type: toxicity, cell-based
# [6] = Permeability of compound by PAMPA-BBB assay; type: ADME; settings: read-out: permeability
# Cholinesterase [7] = molecular target: T1, Cholinesterase; assay: Competitive inhibition of BuChE (unknown origin) assessed as increase in Km with constant Vmax at 0 to 400 nM using varying concentrations of substrate by Lineweaver-Burk plot analysis; settings: dose 0-400 nM
# HepG2 [8] = assay: Cytotoxicity against human HepG2 cells assessed as reduction in cell viability at 50 uM incubated for 24 hrs by MTT assay relative to control; type: toxicity, cell-based; settings: hepg2, 24 h
# HepG2 [9] = assay: Cytotoxicity against human HepG2 cells assessed as reduction in cell viability at <20 uM incubated for 24 hrs by MTT assay; type: toxicity, cell-based; settings: hepg2, 24 h
# Acetylcholinesterase [10] = molecular target: T2, Acetylcholinesterase; assay: Inhibition of AChE (unknown origin)
# T1 sequence (P06276 whole entry): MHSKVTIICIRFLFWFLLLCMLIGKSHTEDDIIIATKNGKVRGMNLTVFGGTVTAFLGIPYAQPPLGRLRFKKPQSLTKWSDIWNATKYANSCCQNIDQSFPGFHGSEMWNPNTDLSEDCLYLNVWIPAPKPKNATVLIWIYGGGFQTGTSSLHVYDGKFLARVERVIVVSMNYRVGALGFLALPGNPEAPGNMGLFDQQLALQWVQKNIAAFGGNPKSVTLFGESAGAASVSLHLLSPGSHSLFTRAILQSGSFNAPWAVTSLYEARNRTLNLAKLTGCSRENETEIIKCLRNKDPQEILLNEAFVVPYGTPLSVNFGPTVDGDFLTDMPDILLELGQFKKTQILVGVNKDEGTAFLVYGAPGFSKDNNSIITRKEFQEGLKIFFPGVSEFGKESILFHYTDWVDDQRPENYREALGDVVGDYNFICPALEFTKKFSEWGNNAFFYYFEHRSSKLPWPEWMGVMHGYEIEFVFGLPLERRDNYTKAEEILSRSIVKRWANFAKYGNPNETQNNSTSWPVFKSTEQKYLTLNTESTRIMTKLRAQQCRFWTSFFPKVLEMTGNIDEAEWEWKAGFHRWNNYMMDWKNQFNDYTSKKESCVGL
# T2 sequence (P22303 whole entry): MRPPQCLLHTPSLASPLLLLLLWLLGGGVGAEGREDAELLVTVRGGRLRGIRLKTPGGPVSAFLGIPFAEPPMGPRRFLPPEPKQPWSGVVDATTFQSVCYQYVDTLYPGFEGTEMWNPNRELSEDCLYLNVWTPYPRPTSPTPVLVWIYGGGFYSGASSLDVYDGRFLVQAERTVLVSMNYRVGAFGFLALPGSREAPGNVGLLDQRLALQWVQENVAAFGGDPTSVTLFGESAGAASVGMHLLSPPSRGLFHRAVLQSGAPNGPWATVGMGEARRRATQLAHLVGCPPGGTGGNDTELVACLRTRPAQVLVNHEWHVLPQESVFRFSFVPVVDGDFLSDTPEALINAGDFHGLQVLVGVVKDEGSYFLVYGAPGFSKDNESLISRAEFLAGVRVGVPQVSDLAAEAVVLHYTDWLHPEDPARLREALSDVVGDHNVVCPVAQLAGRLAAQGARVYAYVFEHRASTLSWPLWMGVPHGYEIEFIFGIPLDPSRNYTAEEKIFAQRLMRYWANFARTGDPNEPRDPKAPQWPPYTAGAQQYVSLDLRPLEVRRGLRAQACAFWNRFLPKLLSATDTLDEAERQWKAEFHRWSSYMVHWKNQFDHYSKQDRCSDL
structure (smiles),measurement,setting,value
CC(C)CN(Cc1csc(COc2ccc(Cl)cc2)n1)C(=O)c1ccc2c(c1)OCO2,inhibition,Cholinesterase [1],91.2%
same,inhibition,Acetylcholinesterase [2],-9.46%
same,IC50,Cholinesterase [3],240 nM
Cc1ccc(OCc2nc(CN(CC(C)C)C(=O)c3cccc(C)c3)cs2)cc1,inhibition,Cholinesterase [1],94.1%
same,inhibition,Acetylcholinesterase [2],-5.65%
same,IC50,Cholinesterase [3],1170 nM
Cc1ccc(OCc2nc(CN(CC(C)C)C(=O)S(=O)(=O)c3cccnc3)cs2)cc1,inhibition,Cholinesterase [1],48.3%
same,inhibition,Acetylcholinesterase [2],16.5%
COc1cccc(C(=O)N(Cc2csc(COc3ccc(C)cc3)n2)CC(C)C)c1,inhibition,Cholinesterase [1],91.4%
same,inhibition,Acetylcholinesterase [2],1.46%
same,IC50,Cholinesterase [3],970 nM
Cc1ccc(OCc2nc(CN(CC(C)C)C(=O)c3ccc4c(c3)OCO4)cs2)cc1,inhibition,Cholinesterase [1],87.2%
same,inhibition,Acetylcholinesterase [2],1.76%
same,IC50,Cholinesterase [3],1280 nM
CCCC(=O)N(Cc1csc(COc2ccc(C)cc2)n1)CC(C)C,inhibition,Cholinesterase [1],66%
same,inhibition,Acetylcholinesterase [2],21.2%
same,IC50,Cholinesterase [3],4570 nM
Cc1ccc(OCc2nc(CN(CC(C)C)C(=O)c3cccc(Cl)c3)cs2)cc1,inhibition,Cholinesterase [1],97%
same,inhibition,Acetylcholinesterase [2],-3.62%
same,IC50,Cholinesterase [3],860 nM
Cc1ccc(OCc2nc(CN(CC(C)C)C(=O)c3cccs3)cs2)cc1,inhibition,Cholinesterase [1],82%
same,inhibition,Acetylcholinesterase [2],-0.31%
same,IC50,Cholinesterase [3],2300 nM
CC(C)CN(Cc1csc(COc2ccc(F)cc2)n1)C(=O)S(=O)(=O)c1ccc2ccccc2c1,inhibition,Cholinesterase [1],40.7%
same,inhibition,Acetylcholinesterase [2],20.9%
Cc1ccc(OCc2nc(CN(CC(C)C)C(=O)c3ccccc3)cs2)cc1,inhibition,Cholinesterase [1],92%
same,inhibition,Acetylcholinesterase [2],0.25%
same,IC50,Cholinesterase [3],1150 nM
CC(C)CN(Cc1csc(COc2ccc(F)cc2)n1)C(=O)c1ccc2c(c1)OCO2,Activity,SH-SY5Y [4],< 40%
same,inhibition,Cholinesterase [1],96.4%
same,Activity,SH-SY5Y [5],Non-Toxic
same,Papp,[6],4.97 ×10⁻⁶ cm/s
same,inhibition,Acetylcholinesterase [2],-9.02%
same,inhibition,Cholinesterase [7],Active
same,IC50,Cholinesterase [3],130 nM
same,Activity,HepG2 [8],< 40%
same,Activity,HepG2 [9],Non-Toxic
CCCCCC(=O)N(Cc1csc(COc2ccc(C)cc2)n1)CC(C)C,inhibition,Cholinesterase [1],86.1%
same,inhibition,Acetylcholinesterase [2],2.55%
same,IC50,Cholinesterase [3],1990 nM
COc1ccc(C(=O)N(Cc2csc(COc3ccc(C)cc3)n2)CC(C)C)cc1,inhibition,Cholinesterase [1],32.8%
same,inhibition,Acetylcholinesterase [2],4.91%
Cc1ccc(OCc2nc(CN(CC(C)C)C(=O)c3c(F)cccc3F)cs2)cc1,inhibition,Cholinesterase [1],66.4%
same,inhibition,Acetylcholinesterase [2],0.18%
same,IC50,Cholinesterase [3],4890 nM
Cc1ccc(OCc2nc(CN(CC(C)C)C(=O)c3ccccc3F)cs2)cc1,inhibition,Cholinesterase [1],86.6%
same,IC50,Cholinesterase [3],1390 nM
Cc1ccc(OCc2nc(CN(CC(C)C)C(=O)S(=O)(=O)c3ccc4ccccc4c3)cs2)cc1,inhibition,Cholinesterase [1],36.5%
same,inhibition,Acetylcholinesterase [2],18.7%
CN(Cc1csc(COc2ccc(F)cc2)n1)C(=O)c1ccc2c(c1)OCO2,inhibition,Cholinesterase [1],31.9%
same,inhibition,Acetylcholinesterase [2],12.8%
Cc1ccc(OCc2nc(CN(CC(C)C)C(=O)c3ccc(F)cc3)cs2)cc1,inhibition,Cholinesterase [1],82.2%
same,IC50,Cholinesterase [3],2210 nM
COc1ccc(OCc2nc(CN(CC(C)C)C(=O)c3ccc4c(c3)OCO4)cs2)cc1,inhibition,Cholinesterase [1],77.8%
same,inhibition,Acetylcholinesterase [2],-5.49%
same,IC50,Cholinesterase [3],1800 nM
COCc1nc(CN(CC(C)C)C(=O)c2ccc3c(c2)OCO3)cs1,inhibition,Cholinesterase [1],15.3%
same,inhibition,Acetylcholinesterase [2],4.72%
CN1c2ccccc2C(NCCCCCCC(=O)CCCCNc2c3c(nc4ccccc24)CCCC3)c2ccc(Cl)cc2S1(=O)=O (centres undefined),IC50,Acetylcholinesterase [10],160 nM
same,IC50,Cholinesterase [3],4 nM
CC(=O)[C@H]1CC[C@H]2[C@@H]3CCC4=CC(=O)CC[C@]4(C)[C@H]3CC[C@]12C [PROGESTERONE],Papp,[6],8.9 ×10⁻⁶ cm/s
Cc1ccc(OCc2nc(CN(CC(C)C)C(=O)c3ccco3)cs2)cc1,inhibition,Cholinesterase [1],87.8%
same,inhibition,Acetylcholinesterase [2],1.61%
same,IC50,Cholinesterase [3],1670 nM
CCC(=O)N(Cc1csc(COc2ccc(C)cc2)n1)CC(C)C,inhibition,Cholinesterase [1],55.3%
same,inhibition,Acetylcholinesterase [2],-2.4%
same,IC50,Cholinesterase [3],8080 nM
CC(C)CN(Cc1csc(COc2ccc(F)cc2)n1)C(=O)S(=O)(=O)c1ccccc1,inhibition,Cholinesterase [1],55.1%
same,inhibition,Acetylcholinesterase [2],9.12%
same,IC50,Cholinesterase [3],8190 nM
Cc1ccc(OCc2nc(CN(CC(C)C)C(=O)c3ccccc3Cl)cs2)cc1,inhibition,Cholinesterase [1],72.4%
same,IC50,Cholinesterase [3],3940 nM
CC(C)CN(Cc1csc(COc2ccc(C(F)(F)F)cc2)n1)C(=O)c1ccc2c(c1)OCO2,inhibition,Cholinesterase [1],65.9%
same,inhibition,Acetylcholinesterase [2],1.71%
same,IC50,Cholinesterase [3],5230 nM
CNC(=O)Oc1ccc2c(c1)[C@]1(C)CCN(C)[C@]1(C)N2C,IC50,Cholinesterase [3],16 nM
Cc1ccc(OCc2nc(CN(CC(C)C)C(=O)c3ccccc3C)cs2)cc1,inhibition,Cholinesterase [1],75.2%
same,IC50,Cholinesterase [3],4100 nM
Nc1c2c(nc3ccccc13)CCCC2,inhibition,Cholinesterase [1],0.07%
Cc1ccc(S(=O)(=O)C(=O)N(Cc2csc(COc3ccc(F)cc3)n2)CC(C)C)cc1,inhibition,Cholinesterase [1],64.4%
same,inhibition,Acetylcholinesterase [2],14.3%
same,IC50,Cholinesterase [3],6850 nM
Cc1ccc(OCc2nc(CN(CC(C)C)C(=O)S(=O)(=O)c3ccccc3)cs2)cc1,inhibition,Cholinesterase [1],32.9%
same,inhibition,Acetylcholinesterase [2],12%
CC(=O)N(Cc1csc(COc2ccc(C)cc2)n1)CC(C)C,inhibition,Cholinesterase [1],64.8%
same,inhibition,Acetylcholinesterase [2],19.9%
same,IC50,Cholinesterase [3],6010 nM
COc1ccccc1C(=O)N(Cc1csc(COc2ccc(C)cc2)n1)CC(C)C,inhibition,Cholinesterase [1],26%
same,inhibition,Acetylcholinesterase [2],2.25%
Cc1ccc(OCc2nc(CN(CC(C)C)C(=O)S(=O)(=O)c3ccc(C)cc3)cs2)cc1,inhibition,Cholinesterase [1],38.4%
same,inhibition,Acetylcholinesterase [2],10.1%
Cc1ccc(OCc2nc(CN(CC(C)C)C(=O)c3cccc(F)c3)cs2)cc1,inhibition,Cholinesterase [1],78.2%
same,inhibition,Acetylcholinesterase [2],0.51%
same,IC50,Cholinesterase [3],2430 nM
Cc1ccc(OCc2nc(CN(CC(C)C)C(=O)c3ccc(Cl)cc3)cs2)cc1,inhibition,Cholinesterase [1],65.5%
same,inhibition,Acetylcholinesterase [2],-6.51%
same,IC50,Cholinesterase [3],2230 nM
Cc1ccc(OCc2nc(CN(CC(C)C)C(=O)c3ccc(C)cc3)cs2)cc1,inhibition,Cholinesterase [1],92.6%
same,IC50,Cholinesterase [3],1050 nM
